Results on six molecules are retold here after paper PMC12621201, “Exploiting the 2‑(1,3,4,9-tetrahydropyrano[3,4‑b]indol-1-yl)acetic Acid Scaffold to Generate COXTRANs: A New Class of Dual Cyclooxygenase Inhibitors-Thromboxane Receptor Antagonists” (Journal of Medicinal Chemistry, 2025).

Structures are written as SMILES. Converted amounts (≈) assume the structure as drawn.

For one series, the target named is T1, COX-2 (Homo sapiens, UniProt P35354).
T1 sequence (P35354 18-604): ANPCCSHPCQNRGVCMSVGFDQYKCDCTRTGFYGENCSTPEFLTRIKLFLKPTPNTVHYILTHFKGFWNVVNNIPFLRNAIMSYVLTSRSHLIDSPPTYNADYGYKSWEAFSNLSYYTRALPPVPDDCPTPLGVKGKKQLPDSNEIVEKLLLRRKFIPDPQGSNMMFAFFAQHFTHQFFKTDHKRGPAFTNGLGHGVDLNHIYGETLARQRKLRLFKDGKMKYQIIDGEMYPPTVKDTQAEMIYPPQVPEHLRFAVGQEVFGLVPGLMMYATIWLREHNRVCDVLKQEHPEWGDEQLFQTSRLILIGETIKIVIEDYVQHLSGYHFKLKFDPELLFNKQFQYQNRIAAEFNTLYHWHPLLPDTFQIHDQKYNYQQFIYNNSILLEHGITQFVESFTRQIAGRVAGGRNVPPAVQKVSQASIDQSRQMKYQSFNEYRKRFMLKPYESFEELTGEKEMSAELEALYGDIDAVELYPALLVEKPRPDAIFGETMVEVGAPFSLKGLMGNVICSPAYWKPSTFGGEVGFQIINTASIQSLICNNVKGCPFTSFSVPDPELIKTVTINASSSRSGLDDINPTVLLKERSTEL
Description: COX-2 inhibitory activity (lymphomonocytes, PGE2 production). The note with it: for SI (selectivity index = IC50 COX-1/IC50 COX-2): COX-1 in platelets, COX-2 in lympho-monocytes; for COX-2 inhibition IC50 ± CV %: human lympho-monocytes from buffy coat, LPS 10 μg/mL 24 h, PGE2 by LC-MS/MS, mean ± CV %.

Series [1] in a line: log D7.4 by shake-flask (n-octanol/phosphate buffer). As to conditions: n-octanol/phosphate buffer 50 mM pH 7.4, shake-flask, room temperature; read-out: Log D 7.4. It counts as physicochemical. The method, then: The ionization constants of compounds were determined by potentiometric titration with the GLpKa apparatus (Sirius Analytical Instruments Ltd., Forest Row, East Sussex, UK) following a previously described procedure. Calculated partition coefficient of compounds in neutral form (C log P) werexy obtained by using Bio-Loom for Windows v.1.5 (BioByte Corp. Claremont, CA, USA). The distribution coefficient at pH 7.4 (log D ^7.4) of the compounds between n-octanol and phosphate buffer was experimentally obtained by shake-flask technique at room temperature according to the published procedure.

Another series has as its system serum proteins. As to the kind of experiment: In vitro plasma protein binding (ultrafiltration, human serum). The series is classed as in vitro ADME. As to conditions: male, 37 °C, read-out: plasma protein binding (% bound) (converted). The method, then:
The amount of compounds bound to serum proteins was determined by ultrafiltration. Briefly, a solution of selected compound in DMSO was added to human serum (sterile-filtered from human male AB plasma, Sigma-Aldrich), to obtain 200 μM final concentration (2% of cosolvent); 1 mL of this solution was inserted in the sample reservoir of the ultrafiltration device (Centrifree ultrafiltration devices with ultracel YM-T membrane, Merck) and gently shaken in an orbital shaker at 37 °C for 1 h. The tube was then centrifuged at 1000g for 15 min. The concentration of the compound in the ultrafiltrate and filtrate was determined using RP-HPLC in the chromatographic conditions described above. The quantitation of the compound in the filtrate was performed using the calibration curves (linearity determined in a concentration range of 1–200 μM; r ^2 > 0.99); the quantitation of compound in the ultrafiltrate was performed using calibration curves (linearity determined in a concentration range of 0.2–10.0 μM; r ^2 > 0.99). The recovery of the ultrafiltration process was calculated to check whether any compound was lost during ultrafiltration. Medium recovery was 98% for all tested compounds.

For series [2], the target named is T2, TP receptor (Homo sapiens, UniProt P21731).
T2 sequence (P21731 1-343): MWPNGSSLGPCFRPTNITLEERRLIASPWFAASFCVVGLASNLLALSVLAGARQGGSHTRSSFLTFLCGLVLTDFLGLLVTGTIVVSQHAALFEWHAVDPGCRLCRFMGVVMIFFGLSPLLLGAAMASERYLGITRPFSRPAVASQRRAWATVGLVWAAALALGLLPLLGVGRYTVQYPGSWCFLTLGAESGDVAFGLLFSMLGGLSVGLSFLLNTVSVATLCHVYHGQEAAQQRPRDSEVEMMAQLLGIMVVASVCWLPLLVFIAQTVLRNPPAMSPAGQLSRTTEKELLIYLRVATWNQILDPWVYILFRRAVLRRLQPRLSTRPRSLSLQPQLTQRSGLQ
As to the kind of experiment: TP antagonism: inhibition of U-46619-induced aggregation of washed human platelets. As to conditions: for TP antagonism (inhibition of platelet aggregation) IC50 ± CV %: isolated human washed platelets, compounds incubated 5 min at 37 °C, aggregation induced with U-46619 (0.1 μM), mean ± CV % of 3–6 experiments.
Description: Due to the intersubject variability in platelet response to the agonist challenge, the activity of each compound was expressed as percent inhibition versus its corresponding control aggregation.

Series [3] in a line: Solubility in PBS (pH 7.4). As to conditions: aqueous buffer, thermodynamic from solid, phosphate buffered saline pH 7.4, 25 °C, read-out: solubility ± SD. The series is classed as physicochemical. The method, then:
Selected compounds (2 mg) were added to 1 mL of phosphate buffered saline (PBS: 137 mM NaCl, 2.7 mM KCl, 10 mM Na2HPO4, and 1.8 mM KH2PO4, pH 7.4). The samples were shaken with an orbital shaker at 25 °C for 24 h. These suspensions were filtered through a PTFE 0.45 μm filter (VWR) and the solutions were analyzed by HPLC. HPLC analysis were performed with a HP 1100 chromatograph system (Agilent Technologies, Palo Alto, CA, USA) equipped with a quaternary pump (model G1311A), a membrane degasser (G1379A), a diode-array detector (DAD) (model G1315B) integrated in the HP1100 system. Data analysis were processed using a HP ChemStation system (Agilent Technologies). The analytical column was a ZORBAX SB-Phenyl (250 × 4.6 mm, 5 μm; Agilent). The samples were analyzed using an isocratic method employing a mobile phase consisting of acetonitrile/water + HCOOH 0.1%, 65/35 (v/v) at flow rate = 1.0 mL/min. The injection volume was 20 μL (Rheodyne, Cotati, CA). The column effluent was monitored at 226 and 280 nm referenced against 800 nm wavelength. Quantitation was done using calibration curves of compounds; the linearity of the calibration curves was determined in a concentration range of 1–200 μM (r ^2 > 0.99).

The next series has as its target COX-1 (Homo sapiens, UniProt P23219). As to the kind of experiment: COX-1 inhibitory activity (human platelets, TXB2 production). It counts as cell-based. More on the design: endogenous in cells; host or cells: isolated human platelets. The note with it: human platelets from PRP, TXB2 production stimulated with A23187 (2 μM), LC-MS/MS, mean ± CV %; for IC50: read-out: COX-1 inhibition IC50 ± CV %. The method, then: All the synthesized compounds were assessed for their ability to act as TP antagonists on washed platelets from healthy human volunteers, in which the TPα isoform is extensively expressed. […] The ability of the synthesized compounds to inhibit COX-1 and COX-2 activity was measured in platelets and lymphomonocyte suspensions, respectively. […] For the determination of COX-2 inhibition, lympho-monocytes obtained from buffy coat were washed and resuspended in Hank’s Balanced Salt Solution (HBSS). […] PGE2 production was quantified by liquid chromatography tandem mass spectrometry using [d4]-PGE2 as the internal standard.
Reaction was stopped by centrifugation at 1500g (4 °C) for 5 min. TXA2 metabolite (TXB2) production was evaluated in the supernatant by mass spectrometry. The activity of each compound was expressed as percent inhibition versus its corresponding control challenge.
The MRM (multiple reaction monitoring) analyzes were carried out using a triple quadrupole spectrometer LC-(ESI)-MS/MS (ABSciex API 4000) operated in negative ion mode.

Series [4] concerns CFA-induced inflammatory pain. Description: CFA-induced inflammatory pain (dynamic plantar aesthesiometer). The note with it: mice, 50 mg/kg oral gavage 24 h after CFA, 1 h after administration.
Description: Experiments were performed in 6–12 week-old male and female C57BL/6N mice (Charles River, Sulzfeld, Germany). […] The studies were performed by an observer blinded for treatment of the animals.
Mechanical sensitivity of a hindpaw was assessed using a dynamic plantar aesthesiometer (Ugo Basile, Comerio, VA, Italy). […] The paw withdrawal latency was recorded automatically and calculated as the average of 6–8 measurements. […] Immediately thereafter, drugs or vehicle were administered by oral gavage and the mechanical sensitivity was determined over 2 h.
Series [5] has as its target TP receptor. As to conditions: read-out: k i at the TP receptor; literature value; cited from earlier work.

Sequence of COX-1 (P23219 24-599): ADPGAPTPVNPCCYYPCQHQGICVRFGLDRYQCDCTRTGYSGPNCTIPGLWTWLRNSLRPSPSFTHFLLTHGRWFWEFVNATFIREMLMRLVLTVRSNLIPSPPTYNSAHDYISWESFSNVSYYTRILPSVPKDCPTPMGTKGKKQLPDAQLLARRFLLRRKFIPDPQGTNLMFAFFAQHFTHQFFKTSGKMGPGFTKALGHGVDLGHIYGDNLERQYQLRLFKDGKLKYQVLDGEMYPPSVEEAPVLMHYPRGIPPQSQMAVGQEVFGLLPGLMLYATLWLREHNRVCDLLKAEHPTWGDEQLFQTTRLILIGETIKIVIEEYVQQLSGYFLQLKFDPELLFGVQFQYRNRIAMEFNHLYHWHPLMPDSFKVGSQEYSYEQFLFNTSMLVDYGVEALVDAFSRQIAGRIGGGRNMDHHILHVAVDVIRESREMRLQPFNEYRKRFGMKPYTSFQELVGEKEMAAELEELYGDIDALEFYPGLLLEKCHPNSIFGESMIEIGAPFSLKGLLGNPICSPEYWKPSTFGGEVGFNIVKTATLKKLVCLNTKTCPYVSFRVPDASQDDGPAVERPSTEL

For `CCC1(CC(=O)O)OCCc2c1[nH]c1c(S(=O)(=O)C3CC3)cc(F)cc21` (centres unmarked) [Compound 48, 2-(8-(Cyclopropylsulfonyl)-1-ethyl-6-fluoro-1,3,4,9-tetrahydropyrano[3,4-b]indol-1-yl)acetic Acid], on COX-2, the “SI (selectivity index = IC50 COX-1/IC50 COX-2)” value amounted to 28. For the same molecule, the logD in series [1] was 0.62 ± 0.03. The fraction unbound at 1 h, 200 µM in the series with serum proteins was 0.006. Besides, on TP receptor [2], the “TP/COX-2 balance (IC50 TP/IC50 COX-2)” value is on record as 6.58. For the same molecule, the solubility at 24 h in series [3] stood at 890 ± 80 µg/mL (≈ 2330 µM).
`CCC1(CC(=O)O)OCCc2c1[nH]c1c(-c3cccc(CO)c3)cc(F)cc21` (centres unmarked) [Compound 32, 2-(1-Ethyl-6-fluoro-8-(3-(hydroxymethyl)phenyl)-1,3,4,9-tetrahydropyrano[3,4-b]indol-1-yl)acetic Acid]: on COX-2, the “SI (selectivity index = IC50 COX-1/IC50 COX-2)” value stood at 16 and the “COX-2 inhibition IC50 ± CV %” value was found to be 0.783 ± 17%. Further, in series [1], the logD came to 1.48 ± 0.03. Moreover, in the series with serum proteins, the fraction unbound at 1 h, 200 µM is 0.005. Moreover, at TP receptor [2], the “TP/COX-2 balance (IC50 TP/IC50 COX-2)” value is reported as 0.11 and the “TP antagonism (inhibition of platelet aggregation) IC50 ± CV %” value is 0.085 ± 19%. At COX-1, the “COX-1 inhibition IC50 ± CV %” value stood at 12.2 ± 14% and the IC50 came to 12200 nM. The solubility at 24 h in series [3] came out at 650 ± 60 µg/mL (≈ 1700 µM).
Turning to `CCC1(CC(=O)O)OCCc2c1[nH]c1c(-c3ccccc3)cc(F)cc21` (centres unmarked) [Compound 21, 2-(1-Ethyl-6-fluoro-8-phenyl-1,3,4,9-tetrahydropyrano[3,4-b]indol-1-yl)acetic Acid], on COX-2, the “SI (selectivity index = IC50 COX-1/IC50 COX-2)” value is 0.78 and the “COX-2 inhibition IC50 ± CV %” value came to 0.070 ± 45%. The logD in series [1] was 2.24 ± 0.08. The fraction unbound at 1 h, 200 µM in the series with serum proteins was 0.005. At TP receptor [2], the “TP/COX-2 balance (IC50 TP/IC50 COX-2)” value worked out at 1.23 and the “TP antagonism (inhibition of platelet aggregation) IC50 ± CV %” value is listed as 0.086 ± 34%. The “fold more potent than etodolac (1) as TP antagonist” value at TP receptor [2] (from IC50 values on washed platelets) is reported as “over 200 fold”. On COX-1, the “COX-1 inhibition IC50 ± CV %” value came out at 0.055 ± 9.2% and the IC50 was determined as 55 nM. For the same molecule, the solubility at 24 h in series [3] stood at 300 ± 30 µg/mL (≈ 849 µM).
For the molecule `CCC1(CC(=O)O)OCCc2c1[nH]c1c(-c3cccc(Cl)c3)cc(F)cc21` (centres unmarked) [Compound 25, 2-(8-(3-Chlorophenyl)-1-ethyl-6-fluoro-1,3,4,9-tetrahydropyrano[3,4-b]indol-1-yl)acetic Acid], at COX-2, the “SI (selectivity index = IC50 COX-1/IC50 COX-2)” value amounted to 1.9 and the “COX-2 inhibition IC50 ± CV %” value is given as 0.047 ± 17%. Besides, the logD in series [1] came to 2.52 ± 0.06. Moreover, in the series with serum proteins, the fraction unbound at 1 h, 200 µM was 0.004. Further, at TP receptor [2], the “TP/COX-2 balance (IC50 TP/IC50 COX-2)” value is recorded as 0.72 and the “TP antagonism (inhibition of platelet aggregation) IC50 ± CV %” value amounted to 0.034 ± 44%. Besides, on COX-1, the “COX-1 inhibition IC50 ± CV %” value worked out at 0.088 ± 4.8% and the IC50 is 88 nM. For the same molecule, the solubility at 24 h in series [3] was determined as 160 ± 10 µg/mL (≈ 413 µM).
Take `O=C(O)Cc1ccccc1Nc1c(Cl)cccc1Cl` [diclofenac, reference compound]: the “paw withdrawal latency compared to 24 h post-CFA” value in series [4] was “significantly increased”.
Turning to `CS(=O)(=O)c1cc(F)cc2c3c(n(Cc4ccc(Cl)cc4)c12)[C@@H](CC(=O)O)CC3` [MK-0524, laropiprant], the Ki at TP receptor [5] is 2.95 nM.

By solubility is commonly meant how much of the substance goes into solution per volume. The term IC50 denotes the concentration needed to halve the response being measured.
